According to ChEMBL document CHEMBL3046025, “Fungitoxic Properties of N-Phenylformamidoximes in Control of Benzimidazole-Resistant Isolates of Fungi” (1992):
The source made the active and inactive calls. No cut-off for these calls is given here.

Legend:
[1] = test system: Botrytis cinerea; experiment: Ratio of EC50 for Benzimidalzole-sensitive Botryotinia fuckeliana isolate Bc-9 to EC50 for Benzimidalzole-resistant Botryotinia fuckeliana isolate Bc-44; type: functional
[2] = test system: Cercospora beticola; experiment: Ratio of EC50 for Benzimidalzole-resistant Cercospora beticola isolate 6-13 to EC50 for Benzimidalzole-resistant Cercospora beticola isole Cb-19; type: functional
[3] = test system: Cercospora beticola; experiment: Ratio of EC50 for Benzimidalzole-sensitive Cercospora beticola isolate 24-3 to EC50 for Benzimidalzole-resistant Cercospora beticola isole Cb-19; type: functional
[4] = test system: Botrytis cinerea; experiment: Antifungal activity against Benzimidalzole-resistant Botryotinia fuckeliana isolate Bc-44 infected compound-treated kidney bean leaves at 50 ppm after 4 days; type: functional
[5] = test system: Cercospora beticola; experiment: Ratio of EC50 for Benzimidalzole-resistant Cercospora beticola isolate 6-13 to EC50 for Benzimidalzole-resistant Cercospora beticola isole 28-8; type: functional
[6] = test system: Botrytis cinerea; experiment: Ratio of EC50 for Benzimidalzole-resistant Botryotinia fuckeliana isolate Bc-40 to EC50 for Benzimidalzole-resistant Botryotinia fuckeliana isolate Bc-31; type: functional
[7] = test system: Cercospora beticola; experiment: Antifungal activity against Benzimidalzole-resistant Cercospora beticola isolate Cb-19 infected in sugar beet seedlings at 3.1 ppm treated as foliar application 7 days prior to inoculation; type: functional
[8] = test system: Cercospora beticola; experiment: Ratio of EC50 for Benzimidalzole-resistant Cercospora beticola isolate 18-11 to EC50 for Benzimidalzole-resistant Cercospora beticola isole Cb-19; type: functional
[9] = test system: Cercospora beticola; experiment: Antifungal activity against Benzimidalzole-resistant Cercospora beticola isolate 18-2 at 0.001 to 1000 ppm after 14 days by agar dilution method; type: functional, organism-based
[10] = test system: Cercospora beticola; experiment: Antifungal activity against Benzimidalzole-sensitive Cercospora beticola isolate 22-5 at 0.001 to 1000 ppm after 14 days by agar dilution method; type: functional, organism-based
[11] = test system: Cercospora beticola; experiment: Antifungal activity against Benzimidalzole-resistant Cercospora beticola isolate Cb-19 infected in sugar beet seedlings at 200 ppm treated as foliar application 7 days prior to inoculation; type: functional
[12] = test system: Botrytis cinerea; experiment: Antifungal activity against Benzimidalzole-resistant Botryotinia fuckeliana isolate Bc-40 at 0.001 to 1000 ppm after 3 days by agar dilution method; type: functional, organism-based
[13] = test system: Cercospora beticola; experiment: Ratio of EC50 for Benzimidalzole-resistant Cercospora beticola isolate 6-13 to EC50 for Benzimidalzole-resistant Cercospora beticola isolate 18-2; type: functional
[14] = test system: Cercospora beticola; experiment: Ratio of EC50 for Benzimidalzole-sensitive Cercospora beticola isolate 24-3 to EC50 for Benzimidalzole-resistant Cercospora beticola isolate 1-3; type: functional
[15] = test system: Cercospora beticola; experiment: Antifungal activity against Benzimidalzole-resistant Cercospora beticola isolate 18-2 infected in compound-treated sugar beet seedlings at 200 ppm after 12 days; type: functional
[16] = test system: Cercospora beticola; experiment: Ratio of EC50 for Benzimidalzole-sensitive Cercospora beticola isolate 22-5 to EC50 for Benzimidalzole-resistant Cercospora beticola isole 28-8; type: functional
[17] = test system: Cercospora beticola; experiment: Antifungal activity against Benzimidalzole-resistant Cercospora beticola isolate 1-3 at 0.001 to 1000 ppm after 14 days by agar dilution method; type: functional, organism-based
[18] = test system: Cercospora beticola; experiment: Ratio of EC50 for Benzimidalzole-sensitive Cercospora beticola isolate 22-5 to EC50 for Benzimidalzole-resistant Cercospora beticola isolate 1-3; type: functional
[19] = test system: Cercospora beticola; experiment: Antifungal activity against Benzimidalzole-resistant Cercospora beticola isolate 18-11 at 0.001 to 1000 ppm after 14 days by agar dilution method; type: functional, organism-based
[20] = test system: Cercospora beticola; experiment: Ratio of EC50 for Benzimidalzole-resistant Cercospora beticola isolate 18-11 to EC50 for Benzimidalzole-resistant Cercospora beticola isole 28-8; type: functional
[21] = test system: Cercospora beticola; experiment: Ratio of EC50 for Benzimidalzole-sensitive Cercospora beticola isolate 22-5 to EC50 for Benzimidalzole-resistant Cercospora beticola isole Cb-19; type: functional
[22] = test system: Cercospora beticola; experiment: Ratio of EC50 for Benzimidalzole-resistant Cercospora beticola isolate 18-11 to EC50 for Benzimidalzole-resistant Cercospora beticola isolate 18-2; type: functional
[23] = test system: Botrytis cinerea; experiment: Antifungal activity against Benzimidalzole-resistant Botryotinia fuckeliana isolate Bc-44 infected kidney bean leaves at 3.1 ppm treated as foliar application followed by incubation for 7 days in green house condition; type: functional
[24] = test system: Cercospora beticola; experiment: Ratio of EC50 for Benzimidalzole-sensitive Cercospora beticola isolate 24-3 to EC50 for Benzimidalzole-resistant Cercospora beticola isole 28-8; type: functional
[25] = test system: Cercospora beticola; experiment: Ratio of EC50 for Benzimidalzole-sensitive Cercospora beticola isolate 24-3 to EC50 for Benzimidalzole-resistant Cercospora beticola isolate 49-4; type: functional
[26] = test system: Botrytis cinerea; experiment: Antifungal activity against Benzimidalzole-resistant Botryotinia fuckeliana isolate Bc-44 infected kidney bean leaves at 200 ppm treated as foliar application followed by incubation for 7 days in green house condition; type: functional
[27] = test system: Cercospora beticola; experiment: Ratio of EC50 for Benzimidalzole-resistant Cercospora beticola isolate 18-11 to EC50 for Benzimidalzole-resistant Cercospora beticola isolate 1-3; type: functional
[28] = test system: Cercospora beticola; experiment: Ratio of EC50 for […] to EC50 for Benzimidalzole-resistant Cercospora beticola isole 28-8; type: functional
[29] = test system: Cercospora beticola; experiment: Antifungal activity against Benzimidalzole-resistant Cercospora beticola isolate Cb-19 infected in sugar beet seedlings at 200 ppm applied as soil drench 3 days prior to inoculation; type: functional
[30] = test system: Cercospora beticola; experiment: Antifungal activity against Benzimidalzole-resistant Cercospora beticola isolate 6-13 at 0.001 to 1000 ppm after 14 days by agar dilution method; type: functional, organism-based
[31] = test system: Cercospora beticola; experiment: Antifungal activity against Benzimidalzole-resistant Cercospora beticola isolate Cb-19 infected in sugar beet seedlings at 200 ppm 24 hr-post inoculation; type: functional
[32] = test system: Botrytis cinerea; experiment: Ratio of EC50 for Benzimidalzole-sensitive Botryotinia fuckeliana isolate Bc-9 to EC50 for Benzimidalzole-resistant Botryotinia fuckeliana isolate Bc-31; type: functional
[33] = test system: Botrytis cinerea; experiment: Antifungal activity against Benzimidalzole-resistant Botryotinia fuckeliana isolate Bc-44 infected compound-treated kidney bean leaves at 12.5 ppm after 4 days; type: functional
[34] = test system: Cercospora beticola; experiment: Antifungal activity against Benzimidalzole-resistant Cercospora beticola isolate 20-2 at 0.001 to 1000 ppm after 14 days by agar dilution method; type: functional, organism-based
[35] = test system: Botrytis cinerea; experiment: Antifungal activity against Benzimidalzole-resistant Botryotinia fuckeliana isolate Bc-44 infected compound-treated kidney bean leaves at 200 ppm after 4 days; type: functional
[36] = test system: Cercospora beticola; experiment: Ratio of EC50 for […] to EC50 for Benzimidalzole-resistant Cercospora beticola isole Cb-19; type: functional
[37] = test system: Botrytis cinerea; experiment: Antifungal activity against Benzimidalzole-resistant Botryotinia fuckeliana isolate Bc-20 at 0.001 to 1000 ppm after 3 days by agar dilution method; type: functional, organism-based
[38] = test system: Cercospora beticola; experiment: Ratio of EC50 for Benzimidalzole-resistant Cercospora beticola isolate 18-11 to EC50 for Benzimidalzole-resistant Cercospora beticola isolate 49-4; type: functional
[39] = test system: Botrytis cinerea; experiment: Antifungal activity against Benzimidalzole-resistant Botryotinia fuckeliana isolate Bc-31 at 0.001 to 1000 ppm after 3 days by agar dilution method; type: functional, organism-based
[40] = test system: Cercospora beticola; experiment: Antifungal activity against Benzimidalzole-resistant Cercospora beticola isolate Cb-19 infected in sugar beet seedlings at 3.1 ppm 24 hr-post inoculation; type: functional
[41] = test system: Cercospora beticola; experiment: Ratio of EC50 for Benzimidalzole-sensitive Cercospora beticola isolate 24-3 to EC50 for Benzimidalzole-resistant Cercospora beticola isolate 18-2; type: functional
[42] = test system: Cercospora beticola; experiment: Antifungal activity against Benzimidalzole-resistant Cercospora beticola isolate Cb-19 infected in compound-treated sugar beet seedlings at 12.5 ppm after 12 days; type: functional
[43] = test system: Botrytis cinerea; experiment: Ratio of EC50 for Benzimidalzole-resistant Botryotinia fuckeliana isolate Bc-20 to EC50 for Benzimidalzole-resistant Botryotinia fuckeliana isolate Bc-31; type: functional

C#CCOc1cc(N/C=N/OC)cc(Cl)c1OCC#C
Ratio EC50 [1]: > 1000
Ratio EC50 [2]: > 1000
Ratio EC50 [3]: > 1000
Activity [4]: 100%
Ratio EC50 [5]: > 1000
Ratio EC50 [6]: > 1000
Activity [7]: 58%
Ratio EC50 [8]: > 1000
Activity [9]: Active
Activity [10]: inactive
Activity [11]: 100%
Activity [12]: inactive
Ratio EC50 [13]: > 1000
Ratio EC50 [14]: > 1000
Activity [15]: 100%
Ratio EC50 [16]: > 1000
Activity [17]: Active
Ratio EC50 [18]: > 1000
Activity [19]: inactive
Ratio EC50 [20]: > 1000
Ratio EC50 [21]: > 1000
Ratio EC50 [22]: > 1000
Activity [23]: 31%
Ratio EC50 [24]: > 1000
Ratio EC50 [25]: > 1000
Activity [26]: 100%
Ratio EC50 [27]: > 1000
Ratio EC50 [28]: > 1000
Activity [29]: 94%
Activity [30]: inactive
Activity [31]: 100%
Ratio EC50 [32]: > 1000
Activity [33]: 100%
Activity [34]: inactive
Activity [35]: 100%
Ratio EC50 [36]: > 1000
Activity [37]: inactive
Ratio EC50 [38]: > 1000
Activity [39]: Active
Activity [40]: 54%
Ratio EC50 [41]: > 1000
Activity [42]: 100%
Ratio EC50 [43]: > 1000

C#CCOc1c(Cl)cc(N/C=N/OC)cc1Cl
Ratio EC50 [1]: > 1000
Ratio EC50 [2]: > 1000
Ratio EC50 [3]: > 1000
Activity [4]: 100%
Ratio EC50 [5]: > 1000
Ratio EC50 [6]: > 1000
Activity [7]: 40%
Ratio EC50 [8]: > 1000
Activity [9]: Active
Activity [10]: inactive
Activity [11]: 100%
Activity [12]: inactive
Ratio EC50 [13]: > 1000
Ratio EC50 [14]: > 1000
Activity [15]: 100%
Ratio EC50 [16]: > 1000
Activity [17]: Active
Ratio EC50 [18]: > 1000
Activity [19]: inactive
Ratio EC50 [20]: > 1000
Ratio EC50 [21]: > 1000
Ratio EC50 [22]: > 1000
Activity [23]: 17%
Ratio EC50 [24]: > 1000
Ratio EC50 [25]: > 1000
Activity [26]: 100%
Ratio EC50 [27]: > 1000
Ratio EC50 [28]: > 1000
Activity [29]: 72%
Activity [30]: inactive
Activity [31]: 100%
Ratio EC50 [32]: > 1000
Activity [33]: 100%
Activity [34]: inactive
Activity [35]: 100%
Ratio EC50 [36]: > 1000
Activity [37]: inactive
Ratio EC50 [38]: > 1000
Activity [39]: Active
Activity [40]: 44%
Ratio EC50 [41]: > 1000
Activity [42]: 100%
Ratio EC50 [43]: > 1000
